# US8119638B2, “Compositions and uses of ET743 for treating cancer” (Pharma Mar, S.A., priority 2007, dated 2012)
# Entries after “also recorded” stand apart in the source; their conditions may differ. Like-named read-outs stand apart in the source and are kept apart here.
# What was measured:
# [1] = test system: advanced/metastatic soft tissue sarcoma (STS) and gastrointestinal stromal tumor (GIST); experiment: Example 1: trials with 24 h iv continuous infusion every 3 or 4 weeks in STS and GIST patients; type: in vivo, human; set-up: tolerability of treatment / safety/toxicities observed: dose or concentration left out as unconfirmed; conditions: for evaluable patients with stable disease or minor responses: after 2 cycles of therapy
# sc B 16 tumor = sc B 16 tumor model in male rats, dexamethasone pre-treatment plus ET743; conditions: Day 14, q2dx5, iv; for Vol. (tumor volume): preliminary results
# Description: The sc B 16 tumor model in male rats was used to compare dexamethasone pre-treated (3 mg/kg total dose; −15 min.), ET743 (90 μg/kg TD) animals to ET alone on a q2dx5, iv, schedule.
# [2] = test system: advanced/metastatic soft tissue sarcoma; experiment: Example 3: trial with 24 h iv continuous infusion every 3 weeks in pretreated sarcoma patients; type: in vivo, human; conditions: 34 evaluable patients
# [3] = for recommended dose level (RD): patients
# Excerpt: The method consists of administration of drug by intravenous infusion over a period of 72 hrs or less at the recommended dose level (RD) with or without combination with other therapeutic agents.
# The Recommended Dose (RD) is the highest dose which can be safely administered to a patient producing tolerable, manageable and reversible toxicity according to the Common Toxicity Criteria established by the National Cancer Institute (USA), with no more than 2 out of 6 patients presenting any dose limiting toxicities (DLT). Guidelines for cancer therapy frequently call for administration of chemotherapeutic agents at the highest safe dose at which toxicity is manageable in order to achieve maximum efficacy (DeVita, V. T. Jr., Hellman, S, and Rosenberg, S. A., Cancer: Principles and Practice of Oncology, 3rd ed., 1989, Lipincott, Philadelphia).
# [4] = test system: advanced and/or metastatic cancers refractory to previous treatments; experiment: Clinical trials using the method of the invention: plasma levels and objective responses; type: in vivo, human
# Description: The administration is performed in cycles, in the preferred application method, an intravenous infusion of ET734 is given to the patients the first week of each cycle, the patients are allowed to recover for the remainder of the cycle. The preferred duration of each cycle is of either 3 or 4 weeks; multiple cycles can be given as needed. The drug may also be administered each of the first days of each cycle. Dose delays and/or dose reductions and schedule adjustments are performed as needed depending on individual patient tolerance of treatments, in particular does reductions are recommended for patients with higher than normal serum levels of liver transaminases or alkaline phosphatase, or bilirubin.
# Definitions for patient responses are adopted from WHO Common Toxicity Criteria and the responses determined following standard medical practice in the field.
# [5] = test system: advanced and/or metastatic cancers refractory to previous treatments; conditions: cited from earlier work
# [6] = test system: advanced/metastatic breast cancer; experiment: Example 2: trial with 24 h iv continuous infusion every 3 weeks in pretreated breast cancer patients; type: in vivo, human
# Description: Data was analyzed from a trial with 24 h iv continues infusion of ET 743 every 3 weeks on 20 pretreated advanced/metastatic breast cancer patients, at a dose level of 1500 μg/m^2.
# all presenting measurable disease and progressing at study entry age 33 to 64 years (median 50 yrs)
# performance status 0-1 (ECOG criteria)
# […] number of involved organs: 2 (range 1-6)
# [7] = test system: advanced/metastatic soft tissue sarcoma; experiment: Example 3: trial with 24 h iv continuous infusion every 3 weeks in pretreated sarcoma patients; type: in vivo, human
# Description: Data was analyzed from a trial with 24 h iv continues infusion of ET 743 every 3 weeks on 20 pretreated advanced/metastatic soft tissue sarcoma patients, with all except two patients being treated at a dose level of 1500 μg/m^2
# 35 Soft tissue sarcoma (STS)
# 22 patients had bulky disease at study entry, with 56% of disease progression under prior regime
# age 16 to 71 years (median 45 yrs)
# performance status 0 (0-2) (ECOG criteria)
# […] number of prior chemotherapy treatments 2 (1-7)
# Most patients had received as prior chemotherapy treatments Anthracyclines and alkylators
# [8] = test system: xenografts of breast cancer, non-small cell lung, melanoma and ovarian cancer; conditions: cited from earlier work
# [9] = 24 h iv continuous infusion every 3 or 4 weeks
# [10] = 56 cycles administered, 1500 μg/m^2 24 h infusion every 3 weeks
smiles,measurement,setting,value
"C[C@@H]1C[C@H]2[C@@H]3CCC4=CC(=O)C=C[C@]4(C)[C@@]3(F)[C@@H](O)C[C@]2(C)[C@@]1(O)C(=O)CO [DEX, dexamethasone]",nausea,[1]; dexamethasone as a prophylactic anti emetic with ET 743 24 h infusion,essentially eliminated
same,BW (body weight),sc B 16 tumor,217 grams
same,Vol. (tumor volume),sc B 16 tumor,"17,252 mm^3"
"COc1cc2c(cc1O)CCN[C@]21CS[C@@H]2c3c(OC(C)=O)c(C)c4c(c3[C@H](COC1=O)N1[C@@H]2[C@H]2c3c(cc(C)c(OC)c3O)C[C@@H]([C@@H]1O)N2C)OCO4 [ET743, ecteinascidin 743]",disease stabilizations (number),[2],11
same,duration of most disease stabilizations,[2],≥ 3 months
same,minor responses (number),[2],3
same,minor responses which became post surgical complete response,[2],one
same,partial responses (number),[2],4
same,partial responses (percent),[2],11.7%
same,partial responses which became post surgical complete response,[2],two
same,recommended dose level (RD),[3]; 3 hr intravenous infusions,1650 microgram per m2 body surface area
same,recommended dose level (RD),"[3]; 3 hr intravenous infusions, listed as ET-743",1650 microgram per m2 body surface
same,recommended dose level (RD),[3]; 24 hr intravenous infusions,1500 microgram per m2 of body surface area
same,dose limiting toxicities (DLTs),"[3]; human, in vivo",myelosuppression and malaise
same,"doses with too large a fraction of patients presenting DLT, too toxic for safe administration","[3]; human, in vivo",≥ 1800 microgram per m2
same,patients presenting severe dose limiting toxic responses,"[3]; human, in vivo",2 out of 4
same,therapeutic window / toxicity,"[3]; human, in vivo",positive therapeutic window with manageable toxicity
same,RD for this schedule,"[3]; intravenous infusion over 5 consecutive days, 24 hr daily",1625 microgram per m2 of body surface area
same,RD for this schedule,[3]; intravenous infusion over 72 hr,1050 microgram per m2 of body surface area
same,safety/toxicities observed,[1]; [9],Myelosuppression; also recorded: Temporary/asymptomatic transaminitis; also recorded: Fatigue
same,tolerability of treatment,[1]; [9],very good
same,evaluable patients with stable disease or minor responses,[1]; STS patients with prior chemotherapy treatment,4 out of 12
same,evaluable patients with stable disease or minor responses,[1]; STS patients without any prior chemotherapy treatment,6 out of 10
same,activity by histology,"[1]; liposarcoma, leiomyo sarcoma, and synovial sarcoma",preliminary evidence of activity
same,objective responses,"[4]; advanced and/or metastatic cancers refractory to previous treatments: soft tissue, bone and gastrointestinal stromal sarcoma, breast cancer and melanoma",Objective responses were obtained
same,clinical marker response,[4]; ovarian cancer,positive clinical marker response
same,plasma levels,[4]; patients at RD,appropriate plasma levels were achieved
same,activity,"[4]; variety of suboptimal schedules, advanced ocular melanoma and mesothelioma",Evidence of activity
same,patient response (case reported in June 98),"[5]; breast cancer, dose level of 1800 microgram m2",breast cancer response
same,patient response (previously reported case),"[5]; melanoma patient, 1 hr infusion",response in a melanoma patient
same,Vol. (tumor volume),sc B 16 tumor,"15,243 mm^3"
same,patients achieving disease stabilization,[6]; 16 evaluable patients,Six
same,partial responses (number of patients),"[6]; 16 evaluable patients, pleuropulmonary and thoracic skin involvement, no primary resistance to either pretreatment drug",Two
same,"Asthenia (grade 2/3), number reported per cycle",[6]; [10],13
same,"Asthenia (grade 2/3), reported per cycle (percent)",[6]; [10],23%
same,"Neutropenia, grade 3 or 4 toxicities reported per cycle (percent)",[6]; [10],50%
same,"Neutropenia, number of grade 3 or 4 toxicities reported per cycle",[6]; [10],25
same,"Reversible transaminitis, grade 3 or 4 toxicities reported per cycle (percent)",[6]; [10],60%
same,"Reversible transaminitis, number of grade 3 or 4 toxicities reported per cycle",[6]; [10],34
same,"Thrombocytopenia, grade 3 or 4 toxicities reported per cycle (percent)",[6]; [10],2%
same,"Thrombocytopenia, number of grade 3 or 4 toxicities reported per cycle",[6]; [10],4
same,patients with sustained decrease in CA 15-3,[6]; among the stabilized patients,two
same,"Acute, reversible transaminitis, grade 3 or 4 toxicities reported per cycle",[7]; 137 cycles administered,44%
same,"Asthenia (grade 2/3), number reported per cycle",[7]; 137 cycles administered,13
same,"Asthenia (grade 2/3), reported per cycle (percent)",[7]; 137 cycles administered,23%
same,"Thrombocytopenia, grade 3 or 4 toxicities reported per cycle",[7]; 137 cycles administered,5%
same,"febrile neutropenia, grade 3 or 4 toxicities reported per cycle",[7]; 137 cycles administered,6.5%
same,"Neutropenia, grade 3 or 4 toxicities reported per cycle","[7]; 137 cycles administered, 1500 μg/m^2 24 h infusion every 3 weeks",34%
same,responses in osteo sarcomas,[7]; osteo sarcoma patients,2 out of 3
same,action in animal models,[8],promising action
